Read-outs that look alike come from different tables or passages of the source.
Assays:
Assay in all cases: Glasshouse assay for herbicidal activity (pre- and post-emergence), percentage phytotoxicity
Type in all cases: in vivo
Lolium perenne (LOLPE) = conditions: Lolium perenne
In short: (§1)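 Pot-grown plants treated one day after sowing (pre-emergence) or at about 12 days (post-emergence); glasshouse at 24/18° C (warm) or 20/16° C (cool species) day/night, 16 h light, 65% humidity. Visual % phytotoxicity (0 = none, 100 = total damage) scored at 15 DAA post or 20 DAA pre.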

Avena fatua (AVEFA) = conditions: Avena fatua
In short: as §1

[1] = tested on: Echinochloa crus-galli (ECHCG); conditions: Echinochloa crus-galli
In short: as §1

[2] = tested on: Alopecurus myosuroides (ALOMY); conditions: Alopecurus myosuroides
In short: as §1

[3] = post-emergence, 360 h, 250 g/ha, post-emergence, 15 DAA, visual assessment (100%=total damage, 0%=no damage), read-out: Post-emergence herbicidal activity (percentage phytotoxicity) LOLPE POST
[4] = pre-emergence, 480 h, 250 g/ha, pre-emergence, 20 DAA, visual assessment (100%=total damage, 0%=no damage), read-out: Pre-emergence herbicidal activity (percentage phytotoxicity) LOLPE PRE
[5] = post-emergence, 360 h, 250 g/ha, post-emergence, 15 DAA, visual assessment (100%=total damage, 0%=no damage), read-out: Post-emergence herbicidal activity (percentage phytotoxicity) AVEFA POST
[6] = pre-emergence, 480 h, 250 g/ha, pre-emergence, 20 DAA, visual assessment (100%=total damage, 0%=no damage), read-out: Pre-emergence herbicidal activity (percentage phytotoxicity) AVEFA PRE
[7] = post-emergence, 360 h, 250 g/ha, post-emergence, 15 DAA, visual assessment (100%=total damage, 0%=no damage), read-out: Post-emergence herbicidal activity (percentage phytotoxicity) ECHCG POST
[8] = pre-emergence, 480 h, 250 g/ha, pre-emergence, 20 DAA, visual assessment (100%=total damage, 0%=no damage), read-out: Pre-emergence herbicidal activity (percentage phytotoxicity) ECHCG PRE
[9] = post-emergence, 360 h, 250 g/ha, post-emergence, 15 DAA, visual assessment (100%=total damage, 0%=no damage), read-out: Post-emergence herbicidal activity (percentage phytotoxicity) ALOMY POST
[10] = pre-emergence, 480 h, 250 g/ha, pre-emergence, 20 DAA, visual assessment (100%=total damage, 0%=no damage), read-out: Pre-emergence herbicidal activity (percentage phytotoxicity) ALOMY PRE
[11] = post-emergence, 360 h, POST-emergence, rate 250 g/ha, visual score 15 DAA (100%=total damage, 0%=no damage), read-out: Post-emergence herbicidal activity (percentage phytotoxicity) LOLPE POST
[12] = pre-emergence, 480 h, PRE-emergence, rate 250 g/ha, visual score 20 DAA (100%=total damage, 0%=no damage), read-out: Pre-emergence herbicidal activity (percentage phytotoxicity) LOLPE PRE
[13] = post-emergence, 360 h, POST-emergence, rate 250 g/ha, visual score 15 DAA (100%=total damage, 0%=no damage), read-out: Post-emergence herbicidal activity (percentage phytotoxicity) AVEFA POST
[14] = pre-emergence, 480 h, PRE-emergence, rate 250 g/ha, visual score 20 DAA (100%=total damage, 0%=no damage), read-out: Pre-emergence herbicidal activity (percentage phytotoxicity) AVEFA PRE
[15] = post-emergence, 360 h, POST-emergence, rate 250 g/ha, visual score 15 DAA (100%=total damage, 0%=no damage), read-out: Post-emergence herbicidal activity (percentage phytotoxicity) ECHCG POST
[16] = pre-emergence, 480 h, PRE-emergence, rate 250 g/ha, visual score 20 DAA (100%=total damage, 0%=no damage), read-out: Pre-emergence herbicidal activity (percentage phytotoxicity) ECHCG PRE
[17] = post-emergence, 360 h, POST-emergence, rate 250 g/ha, visual score 15 DAA (100%=total damage, 0%=no damage), read-out: Post-emergence herbicidal activity (percentage phytotoxicity) ALOMY POST
[18] = pre-emergence, 480 h, PRE-emergence, rate 250 g/ha, visual score 20 DAA (100%=total damage, 0%=no damage), read-out: Pre-emergence herbicidal activity (percentage phytotoxicity) ALOMY PRE

Compound | pest or weed control at 250 g/ha (Lolium perenne (LOLPE); [3]) [%] | pest or weed control at 250 g/ha (Lolium perenne (LOLPE); [4]) [%] | pest or weed control at 250 g/ha (Avena fatua (AVEFA); [5]) [%] | pest or weed control at 250 g/ha (Avena fatua (AVEFA); [6]) [%] | pest or weed control at 250 g/ha [1, 7] [%] | pest or weed control at 250 g/ha [1, 8] [%] | pest or weed control at 250 g/ha [2, 9] [%] | pest or weed control at 250 g/ha [2, 10] [%] | pest or weed control at 250 g/ha (Lolium perenne (LOLPE); [11]) [%] | pest or weed control at 250 g/ha (Lolium perenne (LOLPE); [12]) [%] | pest or weed control at 250 g/ha (Avena fatua (AVEFA); [13]) [%] | pest or weed control at 250 g/ha (Avena fatua (AVEFA); [14]) [%] | pest or weed control at 250 g/ha [1, 15] [%] | pest or weed control at 250 g/ha [1, 16] [%] | pest or weed control at 250 g/ha [2, 17] [%] | pest or weed control at 250 g/ha [2, 18] [%]
C/C=C/CNC(=O)CC1CC(=O)C(c2c(C)cc(-c3ncc(Cl)cc3F)cc2C)C1=O (centres unmarked) [Compound B161] | 100 | 100 | 100 | 80 | 100 | 90 | 100 | 90 |  |  |  |  |  |  |  | 
COCCOCCCNC(=O)CC1CC(=O)C(c2c(C)cc(C)cc2C)C1=O (centres unmarked) [Compound B7] | 80 | 90 | 100 | 90 | 100 | 80 | 100 | 100 |  |  |  |  |  |  |  | 
Cc1cc(-n2cc(Cl)cn2)cc(C)c1C1C(=O)CC(CC(=O)NCc2cccc(F)c2)C1=O (centres unmarked) [Compound B223] |  |  |  |  |  |  |  |  | 80 | 80 | 100 | 70 | 100 | 90 | 90 | 90
Cc1cc(-c2ccc(Br)cn2)cc(C)c1C1C(=O)CC(CC(=O)NC(C)C)C1=O (centres unmarked) [Compound B296] |  |  |  |  |  |  |  |  | 100 | 90 | 100 | 90 | 100 | 100 | 100 | 90
C/C=C/CNC(=O)CC1CC(=O)C(c2c(C)cc(C)cc2C)C1=O (centres unmarked) [Compound B47] | 90 | 100 | 80 | 60 | 90 | 90 | 90 | 90 |  |  |  |  |  |  |  | 
CCc1cc(OCC(F)(F)F)cc(C)c1C1C(=O)CC(CC(=O)NCc2cccc(Cl)c2)C1=O (centres unmarked) [Compound B261] |  |  |  |  |  |  |  |  | 100 | 90 | 100 | 80 | 100 | 90 | 100 | 80
Cc1cc(-n2cc(Cl)cn2)cc(C)c1C1C(=O)CC(CC(=O)N(C)C(C)(C)C)C1=O (centres unmarked) [Compound B229] |  |  |  |  |  |  |  |  | 70 | 90 | 80 | 90 | 100 | 100 | 80 | 90
